In patent publication US12584105B2, “Autologous cell replacement therapy for Parkinson's disease” (The McLean Hospital Corporation, priority 2019, dated 2026):

Columns and labels:
[1] = tested on: voltage-gated Na+ channels; assay type: cell-based, human
[2] = tested on: undifferentiated C4 cells; test: OCT4 qRT-PCR assay for undifferentiated cells; assay type: cell-based, human; conditions: D14, D21 and D28 after quercetin treatment (40 μM at D9 for 16 hours)
Experimental: (§1) For colony forming assay, each cell dilution was cultured for 6 days in E8 medium and pluripotent colonies were identified by AP staining. For the quercetin removal of undifferentiated cells, cells were treated with 40 μM quercetin for 16 hours and cultured in fresh E8 medium. For fluorescence activated cell sorting (FACS), C4 cells were dissociated using TrypLE and filtered through a 70 μm cell strainer. Single cell suspensions were first fixed with 4% formaldehyde for 10 mins and suspended in permeabilization buffer for 15 min on ice. After blocking for 30 min, cells were incubated with primary labeled antibodies (PE conjugated anti SSEA-4, TRA-1-60) for 1 hour on ice in the dark. After washing with PBS with 1% FBS, FACS analysis was performed using a BD Accuri C6 system (BD Bioscience) and data analyses were carried out according to manufacturer's instructions. Fluorochrome matched isotype controls were used and subtracted during analysis. For qRT-PCR assay, total RNA from all dilutions was extracted and subjected to qRT-PCR to determine OCT4 cycle times (Ct) value. OCT4 copy numbers were calculated from the equation curve that was generated from qRT-PCR of purified OCT4 partial sequence. Then, OCT4 copy numbers were plotted against PSC numbers.

[3] = tested on: NANOG+ undifferentiated cells; test: NANOG immunostaining of D14 cells; assay type: cell-based, human; conditions: D14, with quercetin treatment
Experimental: hiPSC derived dopaminergic neurons were washed with phosphate-buffered saline (PBS) (with Ca^2+ and Mg^2+) and fixed with 4% formaldehyde in PBS (pH 7.4) for 10 mins. Cells were incubated for 1 hr in blocking solution (0.3% Triton X-100 and 1% horse serum in PBS) at room temperature. Cells were incubated with primary antibodies in PBS containing 0.3% Triton X-100 and 1% horse serum overnight. Cells were then incubated with the proper fluorescence-conjugated secondary antibodies with Hoechst 33342 for nuclei staining at room temperature for 1 hr. Cell images were obtained by confocal microscopy (KEYENCE, Osaka, Japan). Data regarding specific cell populations were determined from microscopic images using ImageJ software (11). To measure apoptotic cells, cells were stained for cleaved caspase 3, an apoptotic marker, and Hoechst 33342, a DNA-binding nuclear dye. After staining with Hoechst 33342, compacted chromatin is brighter than in normal cells, and the condensed nuclei were counted by fluorescence microscopy. Data regarding specific cell populations were determined from microscopic images by ImageJ software.

undifferentiated iPSCs = test: Residual undifferentiated iPSCs in final cell product (immunostaining and real-time PCR); assay type: cell-based, human; conditions: final cell products at day 28 after quercetin
From the text: After treatment with quercetin, the final cell products (at day 28) had no detectable remaining undifferentiated iPSCs (with an upper boundary of the 95% confidence interval of <1 undifferentiated cell per 1 billion day-28 differentiated cells), on the basis of immunostaining and real-time polymerase chain reaction-based assays. Serotonergic neurons, a potential cause of graft-induced dyskinesia (Olanow et al. Ann Neurol 2003; 54:403-14), were not detected in the final product.

[4] = tested on: undifferentiated C4 cells (human iPSCs); test: Quercetin treatment of undifferentiated hiPSCs (Trypan blue, hemocytometer); assay type: cell-based
Experimental: To test the effect of Quercetin on human iPSC removal, human iPSCs were plated on 6 well plates. Cells were treated with each concentration of Quercetin (5, 10, 20, 40, and 100 μM) for 2, 6, 16, and 24 hours. After each time point, Quercetin containing medium was replaced with fresh medium and cells cultured for 48 hours from the initial Quercetin treatment time. Cells were dissociated using TrypLE and cell viability was measured using Trypan blue exclusion and hemocytometer.
The most critical issue for hPSC-based cell therapy is to establish safety by removing residual undifferentiated cells with neoplastic potential. Based on the previous finding that BIRC5 (encoding survivin) is highly expressed in hPSCs compared to somatic cells (40), we hypothesized that chemical inhibition of survivin would selectively eliminate remaining undifferentiated hiPSCs. However, since survivin is known to be important for neuronal precursors (41, 42), it is important to test whether this strategy interferes with mDAP generation. Among survivin inhibitors (40), we chose the flavonoid quercetin (3,3′,4′,5,7-pentahydroxyflavone) because this natural compound is present at high concentration in commonly consumed vegetables and fruits (43). We first treated 100,000 undifferentiated C4 cells with 5, 10, 20, 40, and 100 μM quercetin for 2, 6, 16, and 24 hours. […]

[5] = tested on: undifferentiated C4 cells; test: Colony forming assay (AP staining) of C4 cells diluted among hDFs; assay type: cell-based, human
Experimental: as §1

[6] = tested on: D9 C4 cells (mostly neuronal precursors); test: Quercetin treatment of D9 differentiating cells, outcome on D11; assay type: cell-based, human; conditions: different concentrations (5-100 μM) for 16 hours on D9
From the text: The most critical issue for hPSC-based cell therapy is to establish safety by removing residual undifferentiated cells with neoplastic potential. Based on the previous finding that BIRC5 (encoding survivin) is highly expressed in hPSCs compared to somatic cells (40), we hypothesized that chemical inhibition of survivin would selectively eliminate remaining undifferentiated hiPSCs. However, since survivin is known to be important for neuronal precursors (41, 42), it is important to test whether this strategy interferes with mDAP generation. Among survivin inhibitors (40), we chose the flavonoid quercetin (3,3′,4′,5,7-pentahydroxyflavone) because this natural compound is present at high concentration in commonly consumed vegetables and fruits (43). We first treated 100,000 undifferentiated C4 cells with 5, 10, 20, 40, and 100 μM quercetin for 2, 6, 16, and 24 hours. After washing with fresh media, cells were further cultured for a total of 48 hours. […] To test whether quercetin affects survival of mDAPs, we treated D9 C4 cells (mostly neuronal precursors) with different concentrations of quercetin for 16 hours and examined outcome on D11.

Structure (SMILES) | transient inward currents evoked by voltage pulses from −70 mV to +40 mV [1] | calculated number of undifferentiated cells [2] | NANOG+ cells [3] | remaining undifferentiated iPSCs, upper boundary of the 95% confidence interval (undifferentiated iPSCs) | efficiency of elimination of undifferentiated hiPSCs [4] [%] | viable cells ([4]; 100,000 undifferentiated C4 cells, >20 μM quercetin for >16 hours, cultured for a total of 48 hours) | AP+ colonies ([5]; 40 μM quercetin for 16 hours, up to 10^5 hiPSCs plated, 6 days culture) | efficacy of quercetin treatment ([5]; colony forming assay) [%] | cell viability and cell number at D11 [6]
NC1=N[C@H](O)[C@H]2[C@H]3O[C@]4(O)O[C@@H]([C@@H](O)[C@@]2(N1)[C@@H]4O)[C@]3(O)CO [TTX, tetrodotoxin] | completely blocked |  |  |  |  |  |  |  | 
O=c1c(O)c(-c2ccc(O)c(O)c2)oc2cc(O)cc(O)c12 [quercetin, 3,3′,4′,5,7-pentahydroxyflavone] |  | less than 1 cell per 100,000 cells | none were detected | < 1 undifferentiated cell per 1 billion day-28 differentiated cells | > 99.99 | undetectable | no AP′ colonies detected | > 99.99 | Neither cell viability nor number was affected
